Results published in PubChem BioAssay (NCI).
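Values below derive from 48-hour exposures of cells grown in 96-well plates, with endpoints linearly interpolated between the two concentrations bracketing the appropriate inhibition level. Definition used: TGI = concentration required for complete inhibition of growth.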

Experiments:
Assay in all cases: NCI-60 cell line screen, 48 h
[1] = tested on: SF-268 CNS
[2] = tested on: OVCAR-8 ovarian
[3] = tested on: OVCAR-4 ovarian
[4] = tested on: DLD-1 colon
[5] = tested on: SR leukemia
[6] = tested on: HCT-15 colon
[7] = tested on: LOX IMVI melanoma
[8] = tested on: CCRF-CEM leukemia
[9] = tested on: TK-10 renal
[10] = tested on: UACC-62 melanoma
[11] = tested on: DMS 114 small cell lung
[12] = tested on: HOP-62 NSCLC
[13] = tested on: EKVX NSCLC
[14] = tested on: IGROV1 ovarian
[15] = tested on: UACC-257 melanoma
[16] = tested on: A549 NSCLC
[17] = tested on: SNB-78 CNS
[18] = tested on: SNB-19 CNS
[19] = tested on: LXFL 529 NSCLC
[20] = tested on: OVCAR-5 ovarian

## CCN(CC)CCCNC(=O)c1ccccc1Nc1c(Cl)cccc1Cl
[1]
  TGI: 30.2 µM
[2]
  TGI: 31.6 µM
[3]
  TGI: 23 µM
[4]
  TGI: 23.8 µM
[5]
  TGI: 27.6 µM
[6]
  TGI: 25.2 µM
[7]
  TGI: 22.3 µM
[8]
  TGI: 21.3 µM
[9]
  TGI: 23.7 µM
[10]
  TGI: 25.3 µM
[11]
  TGI: 26.2 µM
[12]
  TGI: 24.2 µM
[13]
  TGI: 25 µM
[14]
  TGI: 34 µM
[15]
  TGI: 7.45 µM
[16]
  TGI: 31.5 µM
[17]
  TGI: 31.7 µM
[18]
  TGI: 29.1 µM
[19]
  TGI: 28.8 µM
[20]
  TGI: 24.3 µM
